≈ marks a conversion by molar mass, not a printed value.
Key:
HEK293 = assay: cells; assay type: functional; conditions: Homo sapiens, ATCC CRL1573, HEK293; ASSAY_TEST Inhibition of Cell Viability; detection method Resazurin; Fluorescence (ex560/em590); MEDIA DMEM with 10% FBS; plate type 384well; TC; CORNING #3712; time 18 hr
Klebsiella pneumoniae = assay: microbe, parasite or virus in culture; conditions: ATCC 700603, 18 h, ASSAY_TEST Inhibition of Bacterial Growth, detection method Absorption (OD600), MEDIA CAMHB, plate type 384well, NBS, CORNING #3640
Description: Antibacterial activity against Klebsiella pneumoniae MDR ATCC 70063 (CO-ADD:GN_003); MIC in CAMBH media using NBS plates, by OD(600)

Acinetobacter baumannii = assay: microbe, parasite or virus in culture; conditions: ATCC 19606, 18 h, ASSAY_TEST Inhibition of Bacterial Growth, detection method Absorption (OD600), MEDIA CAMHB, plate type 384well, NBS, CORNING #3640
Description: Antibacterial activity against Acinetobacter baumannii ATCC 19606 (CO-ADD:GN_034); MIC in CAMBH media using NBS plates, by OD600

Candida albicans = assay: microbe, parasite or virus in culture; conditions: ATCC 90028, ASSAY_TEST Inhibition of Fungal Growth, detection method Absorption (OD530), plate type 384well, NBS, CORNING #3640
Description: Antifungal activity against Candida albicans ATCC 90028 (CO-ADD:FG_001); MIC in YNB media using NBS plates, by OD630

Pseudomonas aeruginosa = assay: microbe, parasite or virus in culture; conditions: ATCC 27853, 18 h, ASSAY_TEST Inhibition of Bacterial Growth, detection method Absorption (OD600), MEDIA CAMHB, plate type 384well, NBS, CORNING #3640
Description: Antibacterial activity against Pseudomonas aeruginosa ATCC 27853 (CO-ADD:GN_042); MIC in CAMBH media using NBS plates, by OD(600)

Escherichia coli = assay: microbe, parasite or virus in culture; conditions: ATCC 25922, 18 h, ASSAY_TEST Inhibition of Bacterial Growth, detection method Absorption (OD600), MEDIA CAMHB, plate type 384well, NBS, CORNING #3640
Description: Antibacterial activity against Escherichia coli ATCC 25922 (CO-ADD:GN_001); MIC in CAMBH media using NBS plates, by OD(600)

Staphylococcus aureus = assay: microbe, parasite or virus in culture; conditions: ATCC 43300, 18 h, ASSAY_TEST Inhibition of Bacterial Growth, detection method Absorption (OD600), MEDIA CAMHB, plate type 384well, NBS, CORNING #3640
Description: Antibacterial activity against Staphylococcus aureus MRSA ATCC 43300 (CO-ADD:GP_020); MIC in CAMBH media, using NBS plates, by OD(600)

Description for Cryptococcus neoformans: Antifungal activity against Cryptococcus neoformans H99 ATCC 208821 (CO-ADD:FG_002); MIC in YNB media using NBS plates, by Resazurin OD(600-570)

| SMILES | MIC (Klebsiella pneumoniae) | MIC (Acinetobacter baumannii) | MIC (Candida albicans) | MIC (Pseudomonas aeruginosa) | MIC (Escherichia coli) | MIC (Cryptococcus neoformans) | MIC (Staphylococcus aureus) | CC50 (HEK293) |
| --- | --- | --- | --- | --- | --- | --- | --- | --- |
| N#Cc1c(N)[n+]([O-])c2ccccc2[n+]1[O-] | > 32 µg/mL | > 32 µg/mL | > 32 µg/mL | > 32 µg/mL | 16 µg/mL (≈ 79.1 µM) | > 32 µg/mL | > 32 µg/mL | > 32 µg/mL |
| N#CC(C#N)=Cc1cccc([N+](=O)[O-])c1 | > 32 µg/mL | > 32 µg/mL | > 32 µg/mL | 32 µg/mL (≈ 161 µM) | > 32 µg/mL | > 32 µg/mL | > 32 µg/mL | > 32 µg/mL |
| CCOC(=O)c1cc2cc(OCCCC3CCN(Cc4ccccc4)CC3)ccc2[nH]1.Cl | > 32 µg/mL | > 32 µg/mL | > 32 µg/mL | > 32 µg/mL | > 32 µg/mL | > 32 µg/mL | > 32 µg/mL | 16.5 µg/mL |
| CCOC(=O)c1c(C)nc(NCCCCC2CCN(Cc3ccccc3)CC2)c(C#N)c1-c1ccccc1 | > 32 µg/mL | > 32 µg/mL | > 32 µg/mL | > 32 µg/mL | > 32 µg/mL | > 32 µg/mL | > 32 µg/mL | 18.8 µg/mL (≈ 36.8 µM) |
| C#CCNCc1cc2cc(OCc3ccccc3)ccc2[nH]1.Cl | > 32 µg/mL | > 32 µg/mL | > 32 µg/mL | > 32 µg/mL | > 32 µg/mL | > 32 µg/mL | > 32 µg/mL | 4.04 µg/mL |
| COc1ccc(CCl)c2cccnc12 | > 32 µg/mL | > 32 µg/mL | 32 µg/mL (≈ 154 µM) | > 32 µg/mL | > 32 µg/mL | > 32 µg/mL | > 32 µg/mL | > 32 µg/mL |
| Cl.Oc1ccc(CCl)c2cccnc12 | > 32 µg/mL | > 32 µg/mL | 16 µg/mL | 32 µg/mL | > 32 µg/mL | 1 µg/mL | 4 µg/mL | 2.26 µg/mL |
| CC1=C(C(=O)OC(C)(C)C)C(c2ccccc2)C(C#N)=C(N)O1 (configuration not stated) | > 32 µg/mL | > 32 µg/mL | 32 µg/mL (≈ 102 µM) | > 32 µg/mL | > 32 µg/mL | > 32 µg/mL | > 32 µg/mL | > 32 µg/mL |

Continued, in another order:

| MIC (Klebsiella pneumoniae) | MIC (Acinetobacter baumannii) | MIC (Candida albicans) | MIC (Pseudomonas aeruginosa) | MIC (Escherichia coli) | MIC (Cryptococcus neoformans) | MIC (Staphylococcus aureus) | SMILES | CC50 (HEK293) |
| --- | --- | --- | --- | --- | --- | --- | --- | --- |
| > 32 µg/mL | > 32 µg/mL | 32 µg/mL (≈ 100 µM) | > 32 µg/mL | > 32 µg/mL | > 32 µg/mL | > 32 µg/mL | CCOC(=O)C1=C(C)OC(N)=C(C#N)C1c1ccc(Cl)cc1 (configuration not stated) | > 32 µg/mL |
| > 32 µg/mL | > 32 µg/mL | > 32 µg/mL | > 32 µg/mL | > 32 µg/mL | > 32 µg/mL | > 32 µg/mL | N#Cc1c(N)nc(Sc2ccccc2)c(C#N)c1-c1ccccc1 | > 32 µg/mL |
| > 32 µg/mL | > 32 µg/mL | > 32 µg/mL | > 32 µg/mL | > 32 µg/mL | > 32 µg/mL | > 32 µg/mL | CC#CCN(C)Cc1cc2cc(OCc3ccccc3)ccc2[nH]1.O=C(O)C(=O)O | > 32 µg/mL |
| > 32 µg/mL | > 32 µg/mL | > 32 µg/mL | 32 µg/mL (≈ 165 µM) | > 32 µg/mL | 16 µg/mL (≈ 82.6 µM) | > 32 µg/mL | Oc1ccc(CCl)c2cccnc12 | 5.81 µg/mL (≈ 30 µM) |
| > 32 µg/mL | > 32 µg/mL | > 32 µg/mL | > 32 µg/mL | > 32 µg/mL | > 32 µg/mL | > 32 µg/mL | N#Cc1c(NCCC2CCN(Cc3ccccc3)CC2)nc(NCCC2CCN(Cc3ccccc3)CC2)c(C#N)c1-c1ccccc1 | > 32 µg/mL |
| > 32 µg/mL | > 32 µg/mL | > 32 µg/mL | > 32 µg/mL | > 32 µg/mL | > 32 µg/mL | > 32 µg/mL | N#CC1=C(N)Oc2c(ccc3ccccc23)C1c1ccc([N+](=O)[O-])cc1 (configuration not stated) | 0.259 µg/mL (≈ 0.754 µM) |
| > 32 µg/mL | > 32 µg/mL | > 32 µg/mL | > 32 µg/mL | > 32 µg/mL | 32 µg/mL | > 32 µg/mL | C#CCN(C)c1nc(NCCCC2CCN(Cc3ccccc3)CC2)c(C#N)c(-c2ccccc2)c1C#N.Cl | 8.06 µg/mL |
| > 32 µg/mL | > 32 µg/mL | > 32 µg/mL | > 32 µg/mL | > 32 µg/mL | > 32 µg/mL | > 32 µg/mL | COc1ccc(OC)c2nc(Cl)c(C=O)cc12 | > 32 µg/mL |
| > 32 µg/mL | > 32 µg/mL | > 32 µg/mL | > 32 µg/mL | > 32 µg/mL | > 32 µg/mL | > 32 µg/mL | Cn1ccnc1C1c2c(nc3c(c2N)CCCCC3)Oc2ccc3ccccc3c21 (configuration not stated) | > 32 µg/mL |
| > 32 µg/mL | > 32 µg/mL | > 32 µg/mL | > 32 µg/mL | > 32 µg/mL | > 32 µg/mL | > 32 µg/mL | COc1nc2n[nH]c(N)c2c(-c2ccccc2)c1C#N | 5.47 µg/mL (≈ 20.6 µM) |
| > 32 µg/mL | > 32 µg/mL | 16 µg/mL (≈ 73.3 µM) | > 32 µg/mL | > 32 µg/mL | 8 µg/mL (≈ 36.7 µM) | > 32 µg/mL | CCOC(=O)C(=Cc1ccccc1)C(C)=O | 13.5 µg/mL (≈ 61.9 µM) |
